The results in this text go back to EPA's ToxValDB 9.5 (doi:10.2903/j.efsa.2021.6237).

In one data set the test system is Anas platyrhynchos. The following applies: short-term; oral; feed; mortality.
The next data set has as its system Apis mellifera. The following applies: acute, mortality.
In a further data set the test system is Canidae. The following applies: subchronic; duration: 90 days; oral; Dog Other; clinical chemistry.
The test system of another data set is Colinus virginianus. The following applies: acute; oral; mortality.
The next data set deals with Daphnia magna. The note with it: chronic/long-term; duration: 21 days; reproduction.
For a further data set, the system named is Lepomis macrochirus. The following applies: acute; duration: 96 hours; mortality.
A further data set deals with Oncorhynchus mykiss. The note with it: chronic/long-term; duration: 60 days; other.
The test system of the next data set is Tagia sp. The following applies: chronic/long-term; duration: 56 days; reproduction.

What is called NOAEL is the highest dose or exposure tested at which no adverse effect was seen.

For `COP(=S)(OC)SCN1C(=O)c2ccccc2C1=O` [Phosmet], the LD50 was > 2320 mg/kg-day with Anas platyrhynchos; 0.22 µg/piece in the data set with Apis mellifera (dermal); 0.302 µg/piece in the data set on Apis mellifera (oral, unspecified); 56.2 mg/kg-day in the data set on Colinus virginianus; 19.7 µg/L with Lepomis macrochirus; 113 mg/kg-day with Rattus norvegicus (acute, oral, mortality). The NOAEL in the data set with Canidae came out at 1.88 mg/kg-day; with Rattus norvegicus (chronic, duration: 2 years, clinical chemistry), 1.8 mg/kg-day; with Rattus norvegicus (developmental, development) it was 10 mg/kg-day; in the data set with Rattus norvegicus (reproduction developmental), 1 mg/kg-day; in the data set with Rattus norvegicus (subchronic, duration: 90 days, oral, clinical chemistry), 1.88 mg/kg-day. For the same compound, the results for the NOEC in the data set on Daphnia magna, with Oncorhynchus mykiss and in the data set on Tagia sp. were 0.78 µg/L, 3.2 µg/L and 2.96 mg/kg, respectively.
